From EP0250264A1, “Irreversible dopamine-Beta-hydroxylase inhibitors” (SMITHKLINE BECKMAN CORPORATION, priority 1986, dated 1987)

What was measured:
DBH [1] = biological target: T1, DBH (Homo sapiens, UniProt P09172); assay: DBH inhibition assay, conversion of tyramine to octopamine (enzyme inhibition kinetic study); assay type: biochemical; details: enzyme incubated for up to 50 minutes with 10, 20, 40, or 80 µM concentrations
T1 sequence (P09172 1-617): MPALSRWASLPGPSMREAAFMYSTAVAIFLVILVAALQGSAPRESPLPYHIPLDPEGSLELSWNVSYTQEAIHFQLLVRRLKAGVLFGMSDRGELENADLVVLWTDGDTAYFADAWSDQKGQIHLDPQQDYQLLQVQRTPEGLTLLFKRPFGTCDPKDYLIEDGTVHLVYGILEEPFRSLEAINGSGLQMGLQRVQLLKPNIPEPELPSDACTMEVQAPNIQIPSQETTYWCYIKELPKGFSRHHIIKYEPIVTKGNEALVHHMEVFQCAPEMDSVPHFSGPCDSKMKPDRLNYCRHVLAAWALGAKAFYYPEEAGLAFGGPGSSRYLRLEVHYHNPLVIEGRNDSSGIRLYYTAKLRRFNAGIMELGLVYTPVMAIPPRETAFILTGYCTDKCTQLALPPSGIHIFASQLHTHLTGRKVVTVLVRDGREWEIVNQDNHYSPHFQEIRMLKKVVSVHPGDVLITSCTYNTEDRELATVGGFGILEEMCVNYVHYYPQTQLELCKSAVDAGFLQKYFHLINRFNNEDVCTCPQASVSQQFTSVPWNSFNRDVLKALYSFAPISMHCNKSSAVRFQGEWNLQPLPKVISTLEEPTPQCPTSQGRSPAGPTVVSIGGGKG
Experimental: DBH activity was assayed by a standard procedure for measuring the conversion of tyramine to octopamine in the presence of DBH. J.J. Pisano, et al., Biochim. Biophy. Acta, 43, 566-68 (1960). Octopamine was assayed following sodium periodate oxidation to p-hydroxybenzaldehyde by measuring spectrophotometric absorbance at 330 nm.
To measure DBH inhibition, the enzyme was incubated for up to 50 minutes with 10, 20, 40, or 80 µM concentrations of ß-ethynyl-4-hydroxybenzeneethanamine.

[2] = test system: Spontaneously hypertensive rats; assay: Mean arterial blood pressure in spontaneously hypertensive rats, monitored with indwelling tail artery cannulae; assay type: in vivo; details: 100 mg/kg intraperitoneally; for blood pressure reduction remaining at 260 minutes: 260 minutes after administration, b38 compares to vehicle-treated controls
Experimental: Spontaneously hypertensive rats were dosed with a suspension or solution of ß-ethynylbenzeneethanamine- methane sulfonate at a dose of 100 mg/kg intraperitoneally, and mean arterial blood pressure was monitored for 260 minutes using indwelling cannulae positioned in the tail arteries.
Blood pressure also was monitored in spontaneously hypertensive rats given 100 mg/kg intraperitoneally B-ethynyl-3-hydroxybenzeneethanamine hydrochloride.

DBH [3] = biological target: T1, DBH; details: cited from earlier work

## C#CC(CN)c1ccc(O)cc1.Cl (stereo not shown) [ß-ethynyl-4-hydroxybenzeneethanamine, ß-Ethynyl-4-Hydroxybenzeneethanamine Hydrochloride]
DBH [1]
  DBH inhibition: concentration- dependent DBH inhibition
  enzyme inhibition, dependence on time: time-dependent

## C#CC(CN)c1cccc(O)c1 (stereo not shown) [ß-Ethynyl-3-Hydrpxybenzeneethanamine]
[2]
  blood pressure reduction remaining at 260 minutes: approximately ten
[2]; forty minutes following compound administration
  blood pressure reductions: thirty

## phenylpicolinic acid
DBH [3]
  inhibitory activity relative to fusaric acid: twice the inhibitory activity of fusaric acid

## C#CC(CN)c1ccccc1.CS(=O)(=O)O (stereo not shown) [ß-ethynylbenzeneethanamine- methane sulfonate]
[2]
  blood pressure reduction remaining at 260 minutes: approximately twenty
[2]; twenty to forty minutes following administration
  reductions in blood pressure: approximately twenty
